One data set concerns NMT2. The following applies: ref Rampoldi et al., 2012; cited from earlier work.
The target of data set [1] is T1, recombinant human N-myristoyltransferase 1 (rNMT1) (Homo sapiens, UniProt P30419).
T1 construct: Full-length HsNMT1 enzyme was produced as previously described; made in house
T1 sequence (P30419 1-496): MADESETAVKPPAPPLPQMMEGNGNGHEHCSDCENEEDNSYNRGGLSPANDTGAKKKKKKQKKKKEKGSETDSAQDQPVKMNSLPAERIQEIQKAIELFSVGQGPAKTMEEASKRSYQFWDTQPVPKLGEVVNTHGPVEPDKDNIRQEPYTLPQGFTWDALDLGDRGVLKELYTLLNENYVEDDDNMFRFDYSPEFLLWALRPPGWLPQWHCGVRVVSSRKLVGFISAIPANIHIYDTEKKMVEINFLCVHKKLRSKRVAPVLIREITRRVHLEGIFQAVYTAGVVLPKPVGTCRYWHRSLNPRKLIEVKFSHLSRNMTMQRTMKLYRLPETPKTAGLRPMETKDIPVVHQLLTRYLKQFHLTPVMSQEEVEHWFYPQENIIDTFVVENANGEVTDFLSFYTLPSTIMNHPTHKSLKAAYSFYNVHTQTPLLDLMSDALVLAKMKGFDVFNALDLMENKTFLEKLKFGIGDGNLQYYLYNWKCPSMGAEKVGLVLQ
The experiment in a line: Enzymatic HsNMT1 assay (CPM detection of CoA thiol by-product). The following applies: recombinant human NMT1; mean of two independent assays in triplicate; values for 3 and 4 extrapolated; read-out: In Vitro IC50, This Article. The class given is biochemical. The method, then:
After background correction, IC50 values were determined by fitting the four-parametric variable slope function (GraphPad Prism 5.0), with the stated IC50 values being the mean of two independent assays performed in triplicate.

Data set [2] is described as follows: Precipitation in rNMT1 buffer, absorbance at 750 nm. The class given is physicochemical. Particulars: 15 min at room temperature. The protocol:
Absorbance at 750 nm was determined after 15 min at room temperature.
and 72 h. Mean of quadruplicate measurements, ± SEM.
(E) Nuclei counts of HeLa cells after exposure to 1-5 for 24, 48 and 72 h. Mean of quadruplicate

In the next data set the test system is human NMTs. Particulars: ref Bhandarkar et al., 2008; read-out: In Vitro IC50, Reported; cited from earlier work.
For another data set, the system named is human NMT1. The following applies: ref Rampoldi et al., 2012; cited from earlier work.
For data set [3], the system named is N-myristoylated proteome (NMT substrates). The experiment in a line: Quantitative chemical proteomics of YnMyr-tagged proteins. The format is cell-based, human. The following applies: MDA-MB-231 (n = 75). The source says: HeLa and MDA-MB-231 cells were exposed (in triplicate) to 1–5, in a setup identical to that used for in-gel analyses (Figure 2A), with the exception that YnMyr-tagged proteins were ligated to AzRB. Labeled proteins were enriched on NeutrAvidin-agarose and digested on-resin with trypsin; peptides were labeled with tandem mass tag, and analyzed and quantified by nano-liquid chromatography-tandem mass spectrometry on a Thermo Q-Exactive instrument.
Cysteine carbamidomethylation was used as a fixed modification and methionine oxidation and N-terminal acetylation as variable modifications. ‘Trypsin/P’ was chosen as digestion mode enzyme, and up to two missed cleavages were allowed. The ‘match between run’ option was selected, along with ‘unique and razor peptides’ for protein quantification. TMT was set per sample group. […] The false discovery rate was set to 0.01 for peptides and a minimum of 2 unique peptides per protein were required. The mass spectrometry proteomics data have been deposited to the ProteomeXchange Consortium via the PRIDE partner repository with the dataset identifier PXD012722.

The subject of data set [4] is NMT (in-cell target engagement, ARL1). The experiment in a line: Sortase A assay (peptide addition to ARL1), human cell lines. Particulars: A375, NCI-H929 and PANC1 cells; 10, 1 and 0.1 μM 5.
Description: The homogenate was further disrupted by shearing it three times through a 30G needle. […] Hereafter the reaction was quenched with 5 mM EDTA and stored at −20°C until further analysis.
Data set [5] relates to MDA-MB-231 and HeLa cells. The data set can be described thus: Bright-field microscopy. The class given is cell-based, human. The following applies: both cell lines; 18 h; 30 μM 4, 10 μM 5.
The next data set has as its system Jurkat cells. The experiment in a line: Metabolic activity (Cell Titer Blue). Particulars: Jurkat (suspension); 10 μM 5 for 72 h. A general note: Alamar Blue is a resazurin reagent that responds to reducing activity.
Data set [6] relates to HeLa cells. The data set can be described thus: Cell-cycle distribution by FACS (DNA content, EdU). Particulars: 18 h, 30 μM 4, 10 μM 5. Background: Flow cytometry measures light scatter and fluorescence of single cells or particles in a stream.
The subject of data set [7] is NMT within living cells (N-myristoylation). The experiment in a line: YnMyr metabolic tagging, in-gel fluorescence.
In a further data set the test system is A375 melanoma. Also noted: method as in Bhandarkar et al., 2008. The following applies: 11 μM 5, ref Bhandarkar et al., 2008; cited from earlier work.
Data set [8] concerns de novo protein synthesis. The experiment in a line: L-AHA tagging of de novo protein synthesis. The class given is cell-based, human. Particulars: MDA-MB-231 and HeLa; 18 h; 30 μM 4, 10 μM 5. The source says:
Cells were subsequently harvested as described before (see Myristic Acid Analogue (YnMyr) Tagging Experiments).

In data set [9] the test system is HeLa cells. The experiment in a line: Apoptosis, active caspase-3 staining by FACS. Particulars: 18 h, 30 μM 4, 10 μM 5.
Data set [10] can be described thus: Precipitation in growth media.
Another data set deals with MDA-MB-231 cells. The data set can be described thus: Nuclei counting as a measure for proliferation. Particulars: time- and concentration-dependent, 24, 48, 72 h, read-out: IC50 of proliferation (nuclei counts). The class given is cell-based, human. The protocol: After 24, 48 or 72 h of exposure, cell viability was evaluated by determination of metabolic activity and counting of cellular nuclei. Metabolic activity was assessed by addition of Cell Titer Blue (Promega), incubation at 37°C and the appropriate percentage of CO2 for 3 h, followed by measuring the absorbance at 490 nm using a PHERAstar (BMG LabTech, Germany). For nuclei counting, cells were fixed with 4% (w/v) paraformaldehyde at room temperature (RT) for 20 min, permeabilised with 0.2% (v/v) Triton X-100 in PBS at RT for 20 min, DNA stained with 1 μg/mL DAPI (Life Technologies, D1306) at RT for 1 h, followed by three washes with PBS. Whole well images for the total number of cells were acquired with an Acumen Cellista (TTP Labtech), using the 405 nm excitation / FL1 (420-500 nm) emission channel. The cell viability was normalised to the negative control (DMSO) and positive control (Staurosporin and puromycin), followed by fitting the four-parametric variable slope function (GraphPad Prism 5.0) to data of quadruplicate experiments.

“Also recorded” adds a separate entry of the source.

Take `O=C(/C=C/c1ccccc1)/C=C/c1ccccc1.O=C(/C=C/c1ccccc1)/C=C/c1ccccc1.O=C(/C=C/c1ccccc1)/C=C/c1ccccc1.[Pd].[Pd]` [Compound 5, Tris (dibenzylideneacetone) di-palladium]: the “NMT2 inhibition (claimed selectivity NMT1 vs NMT2)” value in the data set on NMT2 was 1.3 µM. Besides, the IC50 was 4200 nM in data set [1], 500 to 1300 nM in the data set with human NMTs and roughly 300 nM in the data set on MDA-MB-231 cells. Further, the “concentration at which the compound precipitated (absorbance at 750 nm)” value in data set [2] stood at 10 µM. In the data set on human NMT1, the “NMT1 inhibition (claimed selectivity NMT1 vs NMT2)” value is 0.5 µM. For the same molecule, the “hierarchical one-minus Pearson correlation clustering of enrichment of N-myristoylated proteins” value in data set [3] is “do not affect NMT activity”. Moreover, in [4], the “NMT inhibition (sortase A) and cytotoxicity” value was “cytotoxic in the absence NMT inhibition”. The cell morphology result in data set [5] is “exhibited this phenotype”. Further, the “effect on metabolic activity” value in the data set with Jurkat cells is listed as “no effect”. Also, the “depletion of S phase compared with MDA-MB-231” value in the data set on HeLa cells [6] is recorded as “correspondingly lower depletion of S phase”. Further, the “N-myristoylation in cells (summary of assays)” value in data set [7] (1 μM IMP-366, 100 nM IMP-1088, 100 μM 2-hydroxymyristic acid, 30 μM D-NMAPPD, 10 μM Tris-DBA palladium, 18 h) is reported as “unaffected; also recorded: does not inhibit NMT in cells”. In [7] (MDA-MB-231 and HeLa, 100 μM 3, 30 μM 4, 10 μM 5), the “quantification of YnMyr tagging of ten bands” value is listed as “at most a minor reduction”. Besides, in the data set with A375 melanoma, the “decrease in cell count” value is given as 96%. Further, in [8], the “decrease in L-AHA labeling” value is 40%–80%. In addition, in the data set on HeLa cells [9], the “induction of apoptosis compared with MDA-MB-231” value is “less induction of apoptosis”. Moreover, the “precipitation in the media” value in data set [10] (cell culture media, black rod-shaped crystals) was “precipitated in the media”. Further, the “concentrations at which precipitation in growth media was most notable” value in data set [10] (growth media of multiple cell lines) is on record as “over 1 μM”.

The record behind these values is publication PMC6593224, “Validation and Invalidation of Chemical Probes for the Human N-myristoyltransferases” (Cell Chemical Biology, 2019).
